We go through nine compounds from the supplement of paper PMC11451515.

Holding throughout (experiment): AUC of viability dose-response curve (% viability x log10 dose units); higher = less sensitive
Conditions in all cases: 48 h

The subject of one assay is SEM cells. The method in brief:
(§1)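 In 1536-well plates, leukemia cells adapted to each medium (500 or 1000 cells/well) were exposed for 48 h at 37°C to library compounds in DMSO across 11 threefold doses, 47 μM down to 0.79 nM. Viability was read by CellTiter-Glo One luminescence and normalised per plate to DMSO and cell-free wells. A four-parameter log-logistic fit over log10 doses was integrated by trapezoidal rule. This yielded the area under the curve, with over-full-viability curves scaled and quality-control failures dropped.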

For a further assay, the system named is P12-Ichikawa. The method, boiled down: as §1
A further assay deals with NOMO1. The method in brief: as §1
Where [1] appears, read: RPMI 5 mM glucose + 10% dialyzed FBS.

In the case of `COCC(=O)NC/C=C/c1ccc2ncnc(Nc3ccc(Oc4ccc(C)nc4)c(C)c3)c2c1`, the “AUC of viability dose-response curve” value in the assay with SEM cells (HPLM + 10% dialyzed FBS) turned out to be 430; with SEM cells (RPMI 5 mM glucose + 10% FBS), 460; in the assay on SEM cells (setting [1]), 412; in the assay on P12-Ichikawa (HPLM + 10% dialyzed FBS), 464; in the assay on P12-Ichikawa (RPMI 5 mM glucose + 10% FBS), 437; with P12-Ichikawa (setting [1]), 436. The “AUC of viability dose-response curve” value with NOMO1 (HPLM + 10% dialyzed FBS) was 329; in the assay on NOMO1 (RPMI 5 mM glucose + 10% FBS), 372; with NOMO1 (setting [1]), 384.

As for `Cc1nnc(C(=O)NC(C)(C)c2nc(C(=O)NCc3ccc(F)cc3)c(O)c(=O)n2C)o1`, the “AUC of viability dose-response curve” value turned out to be 473 in the assay with SEM cells (HPLM + 10% dialyzed FBS); 449 in the assay on SEM cells (RPMI 5 mM glucose + 10% FBS); 465 with SEM cells (setting [1]); 448 in the assay with P12-Ichikawa (HPLM + 10% dialyzed FBS); 454 in the assay with P12-Ichikawa (RPMI 5 mM glucose + 10% FBS); 465 in the assay with P12-Ichikawa (setting [1]). Moreover, the “AUC of viability dose-response curve” value in the assay with NOMO1 (HPLM + 10% dialyzed FBS) was 428; with NOMO1 (RPMI 5 mM glucose + 10% FBS), 449; in the assay with NOMO1 (setting [1]), 470.

Turning to `CC(C)(C)NCC(O)c1ccc(O)c(CO)c1` (stereo unspecified), the “AUC of viability dose-response curve” value is 474 in the assay with SEM cells (HPLM + 10% dialyzed FBS); 461 with SEM cells (RPMI 5 mM glucose + 10% FBS); 470 in the assay with SEM cells (setting [1]); 438 in the assay on P12-Ichikawa (HPLM + 10% dialyzed FBS); 431 in the assay on P12-Ichikawa (RPMI 5 mM glucose + 10% FBS); 442 in the assay with P12-Ichikawa (setting [1]). In addition, the “AUC of viability dose-response curve” value came out at 388 in the assay on NOMO1 (HPLM + 10% dialyzed FBS), 420 with NOMO1 (RPMI 5 mM glucose + 10% FBS) and 399 in the assay on NOMO1 (setting [1]).

On to `CC(O)(C[S+](=O)([O-])c1ccc(F)cc1)C(=O)Nc1ccc(C#N)c(C(F)(F)F)c1` (stereo unspecified), for which the “AUC of viability dose-response curve” value in the assay with SEM cells (HPLM + 10% dialyzed FBS) amounted to 428; with SEM cells (RPMI 5 mM glucose + 10% FBS), 426; with SEM cells (setting [1]) it was 424; in the assay with P12-Ichikawa (HPLM + 10% dialyzed FBS), 450; with P12-Ichikawa (RPMI 5 mM glucose + 10% FBS) it was 430; with P12-Ichikawa (setting [1]), 413. Further, the “AUC of viability dose-response curve” value with NOMO1 (HPLM + 10% dialyzed FBS) is 439; with NOMO1 (RPMI 5 mM glucose + 10% FBS) it was 422; in the assay on NOMO1 (setting [1]), 436.

Take `CN(CC(=O)N(Cc1ccc(C2CCCCC2)cc1)c1ccc(C(=O)O)c(O)c1)[S+](=O)([O-])c1c(F)c(F)c(F)c(F)c1F`: the “AUC of viability dose-response curve” value with SEM cells (HPLM + 10% dialyzed FBS) stood at 432; in the assay with SEM cells (RPMI 5 mM glucose + 10% FBS), 404; with SEM cells (setting [1]), 405; in the assay on P12-Ichikawa (HPLM + 10% dialyzed FBS), 440; in the assay with P12-Ichikawa (RPMI 5 mM glucose + 10% FBS), 462; with P12-Ichikawa (setting [1]) it was 421. In addition, the “AUC of viability dose-response curve” value in the assay on NOMO1 (HPLM + 10% dialyzed FBS) stood at 447; in the assay with NOMO1 (RPMI 5 mM glucose + 10% FBS), 408; in the assay on NOMO1 (setting [1]), 440.

Consider `c1cc2c(cc1[C@H]1OC[C@H]3[C@@H]1CO[C@@H]3c1ccc3c(c1)OCO3)OCO2`, for which the “AUC of viability dose-response curve” value in the assay on SEM cells (HPLM + 10% dialyzed FBS) stood at 468; in the assay on SEM cells (RPMI 5 mM glucose + 10% FBS) it was 454; with SEM cells (setting [1]), 455; in the assay with P12-Ichikawa (HPLM + 10% dialyzed FBS) it was 470; in the assay on P12-Ichikawa (RPMI 5 mM glucose + 10% FBS) it was 452; in the assay with P12-Ichikawa (setting [1]), 473. In addition, the “AUC of viability dose-response curve” value in the assay on NOMO1 (HPLM + 10% dialyzed FBS) was determined as 467; in the assay with NOMO1 (RPMI 5 mM glucose + 10% FBS), 462; in the assay with NOMO1 (setting [1]), 456.

In the case of `O=C(Nc1cccnc1)N1CCC(Cc2cccc(Oc3ccc(C(F)(F)F)cn3)c2)CC1`, the “AUC of viability dose-response curve” value in the assay with SEM cells (HPLM + 10% dialyzed FBS) came to 337; in the assay with SEM cells (RPMI 5 mM glucose + 10% FBS), 299; in the assay with SEM cells (setting [1]), 303; in the assay on P12-Ichikawa (HPLM + 10% dialyzed FBS) it was 361; with P12-Ichikawa (RPMI 5 mM glucose + 10% FBS), 346; in the assay with P12-Ichikawa (setting [1]) it was 344. Besides, the entries for the “AUC of viability dose-response curve” value in the assay on NOMO1 (HPLM + 10% dialyzed FBS), with NOMO1 (RPMI 5 mM glucose + 10% FBS) and in the assay on NOMO1 (setting [1]) were 405, 427 and 425, respectively.

With `Cc1n[nH]c2ccc(-c3cncc(OC[C@@H](N)Cc4ccccc4)c3)cc12`, the “AUC of viability dose-response curve” value in the assay on SEM cells (HPLM + 10% dialyzed FBS) is 312; with SEM cells (RPMI 5 mM glucose + 10% FBS), 341; with SEM cells (setting [1]), 347; in the assay with P12-Ichikawa (HPLM + 10% dialyzed FBS) it was 371; in the assay with P12-Ichikawa (RPMI 5 mM glucose + 10% FBS) it was 335; with P12-Ichikawa (setting [1]), 355. Moreover, the “AUC of viability dose-response curve” value was determined as 324 with NOMO1 (HPLM + 10% dialyzed FBS), 365 in the assay on NOMO1 (RPMI 5 mM glucose + 10% FBS) and 348 in the assay with NOMO1 (setting [1]).

For `NC[C@H](O)c1ccc(O)c(O)c1`, the “AUC of viability dose-response curve” value with SEM cells (HPLM + 10% dialyzed FBS) was 443; with SEM cells (RPMI 5 mM glucose + 10% FBS) it was 453; in the assay on SEM cells (setting [1]), 456; with P12-Ichikawa (HPLM + 10% dialyzed FBS), 460; in the assay on P12-Ichikawa (RPMI 5 mM glucose + 10% FBS) it was 457; in the assay with P12-Ichikawa (setting [1]), 439. In addition, the figures for the “AUC of viability dose-response curve” value in the assay with NOMO1 (HPLM + 10% dialyzed FBS), in the assay on NOMO1 (RPMI 5 mM glucose + 10% FBS) and in the assay on NOMO1 (setting [1]) were 411, 452 and 427, respectively.
